# Results as given in PMC6001238, “Iterative Chemical Engineering of Vancomycin Leads to Novel Vancomycin Analogs With a High in Vitro Therapeutic Index” (Frontiers in Microbiology, 2018).
# Read-outs that look alike come from different tables or passages of the source.
# Experiments:
# VE 152 (VanB) = assay: MIC, VanB-type VRE strain VE 152; type: cell-based, Enterococcus; conditions: VE 152, VanB; read-out: MIC
# Method in brief: (§1)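 CLSI broth microdilution; water and uninoculated-broth controls; one arm supplemented with vancomycin, final 10 μM, given with analogue or control antibiotic.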
# E. faecalis VRE 29 = assay: MIC, broth microdilution, vancomycin-resistant E. faecalis VRE 29 (VanA); type: cell-based, Enterococcus faecalis
# Method in brief: as §1
# S. aureus VISA/HIP5827 = assay: MIC, broth microdilution, vancomycin-intermediate S. aureus VISA HIP5827; type: cell-based, Staphylococcus aureus; conditions: VISA/HIP5827; ratio of MIC of vancomycin and MIC of analogue
# Method in brief: as §1
# [1] = test system: Clostridium difficile AIU ribotype 027; assay: MIC, plate drop assay, C. difficile AIU ribotype 027; type: cell-based; conditions: C. difficile AIU ribotype 027
# Method in brief: (§2)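 Lawns of each strain were made in soft BHI agar (0.4%) supplemented with CaCl2⋅2H2O and MgCl2⋅6H2O. Twofold compound dilutions (10 μL) were spotted, air-dried and incubated overnight at 37°C anaerobically; MIC read as cleared spots, in triplicate with water as negative control.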
# S. aureus VRSA = assay: MIC, broth microdilution, vancomycin-resistant S. aureus (VRSA); type: cell-based, Staphylococcus aureus
# Method in brief: as §1
# [2] = test system: 24 clinical MRSA isolates; assay: MIC against a set of 24 clinical MRSA isolates (range, MIC50, TI); type: cell-based, Staphylococcus aureus
# Method in brief: as §1
# MRSA KS89 = assay: MIC, broth microdilution, MRSA KS89; type: cell-based, Staphylococcus aureus
# Method in brief: as §1
# [3] = test system: L1210, CEM and HeLa cell lines; assay: Cytostatic activity, average or summary over L1210, CEM and HeLa; type: cell-based
# Method in brief: (§3)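 Test compounds, serially diluted, received an equal volume of cell suspension at 300,000–500,000 cells/mL. After 37°C incubation (2 days for L1210, 3 for CEM, 4 for HeLa), cells were enumerated by Coulter counting and 50%-inhibitory concentrations calculated per cell type.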
# VE 148 (VanB) = assay: MIC, VanB-type VRE strain VE 148; type: cell-based, Enterococcus; conditions: VE 148, VanB; read-out: MIC
# Method in brief: as §1
# [4] = test system: Clostridium difficile ATJ ribotype 014/20; assay: MIC, plate drop assay, C. difficile ATJ ribotype 014/20; type: cell-based; conditions: C. difficile ATJ ribotype 014/20
# Method in brief: as §2
# VE 157 (VanB) = assay: MIC, VanB-type VRE strain VE 157; type: cell-based, Enterococcus; conditions: VE 157, VanB; read-out: MIC
# Method in brief: as §1
# 33 clinical VRE isolates = assay: MIC against a set of 33 clinical VRE isolates (range, MIC50, TI); type: cell-based, Enterococcus faecalis
# Method in brief: as §1
# MRSA KS2 = assay: MIC, broth microdilution, MRSA KS2; type: cell-based, Staphylococcus aureus
# Method in brief: as §1
# E. faecalis VSE 1 = assay: MIC, broth microdilution, vancomycin-sensitive E. faecalis (VSE 1); type: cell-based, Enterococcus faecalis
# Method in brief: as §1
# VE 82 (VanC1) = assay: MIC, VanC1-type VRE strain VE 82; type: cell-based, Enterococcus gallinarum; conditions: VE 82, VanC1; read-out: MIC
# Method in brief: as §1
# [5] = test system: Murine leukemia (L1210) cells; assay: Cytostatic activity, L1210 cell proliferation; type: cell-based; conditions: mean ± SD of three experiments; highest concentration tested 250 µM; 2 days; read-out: Toxicity (IC50) L1210
# Method in brief: as §3
# E. faecalis VRE 37 = assay: MIC, broth microdilution, vancomycin-resistant E. faecalis VRE 37 (VanA); type: cell-based, Enterococcus faecalis
# Method in brief: as §1
# VE 149 (VanB) = assay: MIC, VanB-type VRE strain VE 149; type: cell-based, Enterococcus; conditions: VE 149, VanB; read-out: MIC
# Method in brief: as §1
# [6] = test system: human cervix carcinoma (HeLa) cells; assay: Cytostatic activity, HeLa cell proliferation; type: cell-based; conditions: mean ± SD of three experiments; highest concentration tested 250 µM; 4 days; read-out: Toxicity (IC50) HeLa
# Method in brief: as §3
# [7] = test system: S. aureus VSSA (ATCC 6538); assay: MIC, broth microdilution, vancomycin-sensitive S. aureus (VSSA/MSSA, ATCC 6538); type: cell-based, Staphylococcus aureus
# Method in brief: as §1
# VE 150 (VanB) = assay: MIC, VanB-type VRE strain VE 150; type: cell-based, Enterococcus; conditions: VE 150, VanB; read-out: MIC
# Method in brief: as §1
# E. faecalis VRE 53 = assay: MIC, broth microdilution, vancomycin-resistant E. faecalis VRE 53 (VanA); type: cell-based, Enterococcus faecalis
# Method in brief: as §1
# E. faecalis VRE 6 = assay: MIC, broth microdilution, vancomycin-resistant E. faecalis VRE 6 (VanA); type: cell-based, Enterococcus faecalis
# Method in brief: as §1
# MRSA KS6 = assay: MIC, broth microdilution, MRSA KS6; type: cell-based, Staphylococcus aureus
# Method in brief: as §1
# MRSA KS1 = assay: MIC, broth microdilution, MRSA KS1; type: cell-based, Staphylococcus aureus
# Method in brief: as §1
# MRSA = assay: Minimum bactericidal concentration against MRSA; type: cell-based, Staphylococcus aureus
# Protocol: Plates were incubated overnight at 37°C and colony growth was inspected.
# [8] = test system: human T-lymphocyte (CEM) cells; assay: Cytostatic activity, CEM cell proliferation; type: cell-based; conditions: mean ± SD of three experiments; highest concentration tested 250 µM; 3 days; read-out: Toxicity (IC50) CEM
# Method in brief: as §3
smiles,measurement,setting,value
CNC(CC(C)C)C(=O)NC1C(=O)NC(CC(N)=O)C(=O)NC2C(=O)NC3C(=O)NC(C(=O)NC(C(=O)NCCCNC(=O)c4cc5ccccc5[nH]4)c4cc(O)cc(O)c4-c4cc3ccc4O)C(O)c3ccc(c(Cl)c3)Oc3cc2cc(c3OC2OC(CO)C(O)C(O)C2OC2CC(C)(N)C(O)C(C)O2)Oc2ccc(cc2Cl)C1O (stereo not shown) [Vanc-24],MIC,VE 152 (VanB),1.56 µM
same,MIC,"E. faecalis VRE 29; Enterococcus faecalis VRE 29 (vancomycin-resistant), read-out: MIC",12.5 µM
same,MIC-fold improvement vs. vancomycin,"E. faecalis VRE 29; VRE 29, ratio of MIC of vancomycin and MIC of analogue",32
same,MIC-fold improvement vs. vancomycin,S. aureus VISA/HIP5827,32
same,MIC-fold improvement vs. vancomycin,[1],14
same,MIC,"S. aureus VRSA; Staphylococcus aureus VRSA, read-out: MIC",1.56 µM
same,MIC-fold improvement vs. vancomycin,"S. aureus VRSA; VRSA, ratio of MIC of vancomycin and MIC of analogue",64
same,MIC Range,[2]; 24 clinical MRSA isolates,0.10 to 0.78 µM
same,TI (IC50/MIC50),"[2]; in vitro therapeutic index, MRSA",825
same,MIC50,"[2]; median MIC, 24 clinical MRSA isolates, read-out: MIC50",0.20 µM
same,MIC-fold improvement vs. vancomycin,"MRSA KS89; MRSA KS8, ratio of MIC of vancomycin and MIC of analogue",2
same,MIC,"MRSA KS89; Staphylococcus aureus MRSA KS8, read-out: MIC",0.39 µM
same,IC50,"[3]; average IC50 used for TI in Table S5, >250 entered as 250, read-out: IC50",165 µM
same,IC50,"[3]; average of L1210, CEM and HeLa, read-out: Toxicity (IC50) Average",165 µM
same,MIC,VE 148 (VanB),3.13 µM
same,MIC-fold improvement vs. vancomycin,[4],11
same,MIC,VE 157 (VanB),1.56 µM
same,MIC Range,33 clinical VRE isolates; 33 clinical VRE isolates,3.13 to 50 µM
same,TI (IC50/MIC50),"33 clinical VRE isolates; in vitro therapeutic index, VRE",26
same,MIC50,"33 clinical VRE isolates; median MIC, 33 clinical VRE isolates, read-out: MIC50",6.25 µM
same,MIC-fold improvement vs. vancomycin,"MRSA KS2; MRSA KS2, ratio of MIC of vancomycin and MIC of analogue",4
same,MIC,"MRSA KS2; Staphylococcus aureus MRSA KS2, read-out: MIC",0.20 µM
same,MIC,"E. faecalis VSE 1; Enterococcus faecalis VSE 1 (vancomycin-sensitive), read-out: MIC",0.20 µM
same,MIC-fold improvement vs. vancomycin,"E. faecalis VSE 1; VSE 1, ratio of MIC of vancomycin and MIC of analogue",8
same,MIC,VE 82 (VanC1),0.39 µM
same,IC50,[5],164 ± 20 µM
same,MIC,"E. faecalis VRE 37; Enterococcus faecalis VRE 37 (vancomycin-resistant), read-out: MIC",6.25 µM
same,MIC-fold improvement vs. vancomycin,"E. faecalis VRE 37; VRE 37, ratio of MIC of vancomycin and MIC of analogue",64
same,MIC,VE 149 (VanB),1.56 µM
same,IC50,[6],83 ± 9 µM
same,MIC,"[7]; Staphylococcus aureus VSSA, read-out: MIC",0.20 µM
same,MIC-fold improvement vs. vancomycin,"[7]; VSSA, ratio of MIC of vancomycin and MIC of analogue",4
same,MIC,VE 150 (VanB),1.56 µM
same,MIC,"E. faecalis VRE 53; Enterococcus faecalis VRE 53 (vancomycin-resistant), read-out: MIC",25 µM
same,MIC-fold improvement vs. vancomycin,"E. faecalis VRE 53; VRE 53, ratio of MIC of vancomycin and MIC of analogue",16
same,MIC,"E. faecalis VRE 6; Enterococcus faecalis VRE 6 (vancomycin-resistant), read-out: MIC",0.78 µM
same,MIC-fold improvement vs. vancomycin,"E. faecalis VRE 6; VRE 6, ratio of MIC of vancomycin and MIC of analogue",256
same,MIC-fold improvement vs. vancomycin,"MRSA KS6; MRSA KS6, ratio of MIC of vancomycin and MIC of analogue",2
same,MIC,"MRSA KS6; Staphylococcus aureus MRSA KS6, read-out: MIC",0.39 µM
same,MIC-fold improvement vs. vancomycin,"MRSA KS1; MRSA KS1, ratio of MIC of vancomycin and MIC of analogue",2
same,MIC,"MRSA KS1; Staphylococcus aureus MRSA KS1, read-out: MIC",0.39 µM
same,MBC relative to MIC,MRSA,MBC equaling their MIC values
same,IC50,[8],248 ± 3 µM
